Measurements as given in US20070026090A1, “Treatment and prevention of inflammatory disease and mitochondrial dysfunction with high dose selenium” (priority 2003, published 2007).
Entries after “also recorded” stand apart in the source; their conditions may differ.

Assays:
[1] = test system: cytochrome c mRNA; assay: Cytochrome c mRNA in colon tissue (RT-PCR); assay type: in vivo, rat; settings: 24 h after TNBS; supplemented (FIG. 7A lane 4)
[2] = test system: NF-κB; assay: NF-κB binding in vitro, selenite added to nuclear extract (EMSA); set-up: species or system murine; settings: 5 μM added to nuclear extract 5 minutes before (FIG. 12B)
Protocol: Nuclear extracts: Nuclear Extracts were prepared using a slight modification of the method of Dignam et al (23). Treated cells were washed with cold PBS, scraped and centrifuged. Hypotonic buffer (1 ml, 20 mM HEPES pH 7.0, 10 mM KCl, 1 mM mGCl2, 0.5 mM DTT, 0.1% Triton X-100, 20% glycerol, 2 mM PMSP, 1 mg/ml Aprotonin and Leupeptin) was added to the cell pellets, the pellets were disrupted by pipetting, and centrifuged 3000 RPM for 5 min. The pellets were re-suspended in 100 μl cold extraction buffer (20 mM HEPES pH 7.0, 10 mM KCl, 1 mM mGCl2, 0.5 mM DTT, 0.1% Triton X-100, 20% glycerol, 2 mM PMSF, 1 mg/ml Aprotonin and Leupeptin, 420 mM NaCl). The samples were rotated for 20 min at 4° C., centrifuged 15,000 RPM for 10 min, and supernatants collected. Protein content was measured using Bradford reagent. Samples were stored frozen at minus 70° C.
Electromobility shift assay (EMSA)—Gel shift assays were performed according to the gel shift assay protocol from Promega Corp. (San Luis Obispo, Calif.). […] For each reaction, 2 μg of nuclear extract were incubated with 2 μl of 5× binding buffer for 5 min., 1 μl of the ^32P-labeled oligonucleotide was added at room temperature for 20 min., the samples were prepared by adding 1 μl of dye free loading buffer, and separated using 6% non-denaturing acrylamide gel electrophoresis. […]

[3] = test system: mitochondrial DNA (D-loop region); assay: Mitochondrial DNA analysis in the colon (D-loop PCR); assay type: in vivo, rat
Protocol: Mitochondrial DNA analysis in the colon: Tissue content of mitochondrial DNA was determined using specific primers for the D-loop region in the mitochondrial DNA. Mitochondrial colon tissue genomic DNA, was prepared using the Promega Wizard Genomic DNA Purification Kit (Promega Corp, Madison, Wis.). Mitochondrial DNA was amplified by the PCR reaction: Twenty cycles were used for the amplification with 25 ng total tissue DNA as template. Saturation in intensity of PCR products was observed after 24 cycles.
Primers: Left (sense) 5′-[…]-3′ (SEQ ID NO:1), corresponding to nucleotides 468 to 489 of rat mitochondrial D-loop region DNA (GenBank Accession No. X52757.1).
Right (antisense) 5′-[…]-3′ (SEQ ID NO:2) corresponding to nucleotides 988 to 967 of rat mitochondrial D-loop DNA (GenBank Accession No. X52757.1).
The expected PCR product was 520 bp. Actual PCR product was approximately 520 bp, measured on 1.25% agarose gel in TAE containing ethidium bromide.

[4] = test system: myeloperoxidase (MPO) activity; assay: Tissue inflammation: myeloperoxidase activity in colon tissue; assay type: in vivo, rat; settings: supplemented rats, 24 h after TNBS; unsupplemented rats greater than 30-fold
Protocol: Tissue inflammation-Myeloperoxidase activity: Colonic tissue samples (approximately 100-120 mg) were collected 4 cm proximal to the anus. Each tissue sample was homogenized in a solution containing 0.5% hexa-decyl-trimethyl-ammonium bromide (HTAB) (Sigma-Aldrich Corp, St. Louis, Mo.) buffer (0.5% HTAB in 50 mM phosphate buffer, pH 6.0). Tissue samples were minced in a test tube containing 1 ml of HTAB buffer on ice and homogenized with a Polytron tissue homogenizer (Brinkmann Instruments, Inc, Westbury N.Y., USA). The pooled homogenates and washes were sonicated in water for 20 seconds. After three cycles of freeze-thawing, the sonicated samples were centrifuged in cold for 15 min. at 40,000×g. Myeloperoxidase activity (MPO) was assayed in the supernatant as described by Krawisz (Krawisz et al., 1984) after addition of O-dianizidine-HCl (Sigma-Aldrich Corp, St Louis, Mo.) and 0.15% (v/v) H2O2 as a substrate for the MPO. The rate of change in absorbance was measured spectrophotometrically at 460 nm, and is expressed as the amount of enzyme necessary to produce a change in absorbance of 1.0 unit per minute (1 unit) per gram wet weight tissue.

[5] = test system: cytochrome c; assay: Cytochrome c protein in colon tissue (Western blot); assay type: in vivo, rat
Text: Western blotting—analysis of Cytochrome c: Colon tissue samples were boiled and kept in sample buffer (Sigma-Aldrich Corp., St Louis, Mo.) immediately following isolation. For electrophoretic separation and immunodetection, the samples were reboiled, and subjected to SDS-PAGE followed by Western blot analysis. Briefly, separated proteins were transferred electrophoretically from the gel to a nitrocellulose membrane (Amersham International plc, Buckinghamshire, England). The membrane was blocked in TBS (0.15 M NaCl/10 mM Tris/HCl [pH7.4]) containing 5% (v/v) skim milk (Blotto), then incubated overnight with the primary antibody at 4° C. (diluted 1/1000 in Blotto). Following six washes in TBST (TBS containing 0.05% v/v Tween 20), the membrane was incubated for 2 hours at room temperature with the secondary antibody (diluted 1/1000 in Blotto). Immunoreactive bands were detected with ECL western blotting detection reagents and developed on film (Shilo et al., 2003). Separated proteins were transferred electrophoretically from the gel to a nitrocellulose membrane (Amersham International plc, Buckinghamshire, England). […] Immunoreactive bands were visualized by detection with ECL Western blotting detection reagents (ECL, Amersham Biosciences, Uppsala, Sweden) followed by exposure of film and quantitation by densitometry (Shilo et al., 2003).

**Q.** Which “effect of TNBS-induced colitis on cytochrome c mRNA levels” value [1] does the source give for `[Se]` [selenium] here?
**A.** completely prevented

**Q.** What about the “NF-κB binding in vitro” value [2] of the same molecule?
**A.** directly inhibited

**Q.** What about the “mitochondrial DNA in colon tissue, colitis-induced rats” value ([3]; 24 h after TNBS, supplemented vs unsupplemented (FIG. 6)) of the same molecule?
**A.** intact mitochondrial DNA; also recorded: protects against the loss

**Q.** What about the “mitochondrial DNA in colon tissue, uninduced rats” value ([3]; TNBS−, Se suppl+ (FIG. 6)) of the same molecule?
**A.** No change

**Q.** What about the “myeloperoxidase elevation following hapten administration, compared to uninduced controls” value [4] of the same molecule?
**A.** approximately 5 fold

**Q.** And the “inflammation-associated alterations of cytochrome c protein” value ([5]; 24 h after TNBS, supplemented (FIG. 7B lane 4 vs lane 3))?
**A.** completely prevented

**Q.** And the “characteristics of cytochrome c protein, healthy uninduced rats” value ([5]; FIG. 7B lane 1 vs lane 2)?
**A.** no effect
